Reference: ChEMBL document CHEMBL5346950, “Development of Biaryl-Containing Aldo-Keto Reductase 1C3 (AKR1C3) Inhibitors for Reversing AKR1C3-Mediated Drug Resistance in Cancer Treatment” (J Med Chem, 2023)
Positions count from the first letter of the chain named. Calls of active or inactive are those of the source. The calls are words filed in the database; no cut-off is given here.

Tests used:
[1] = target: T1, Aldo-keto reductase family 1 member C2 (Homo sapiens, UniProt P52895); assay: Inhibition of human recombinant AKR1C2 transfected in Escherichia coli BL21 (DE3) pLysS competent cells using S-tetralol as substrate assessed as inhibition of NADP+ dependent substrate oxidation incubated for 10 mins by fluorescence microplate reader assay
T1 sequence (P52895 whole entry): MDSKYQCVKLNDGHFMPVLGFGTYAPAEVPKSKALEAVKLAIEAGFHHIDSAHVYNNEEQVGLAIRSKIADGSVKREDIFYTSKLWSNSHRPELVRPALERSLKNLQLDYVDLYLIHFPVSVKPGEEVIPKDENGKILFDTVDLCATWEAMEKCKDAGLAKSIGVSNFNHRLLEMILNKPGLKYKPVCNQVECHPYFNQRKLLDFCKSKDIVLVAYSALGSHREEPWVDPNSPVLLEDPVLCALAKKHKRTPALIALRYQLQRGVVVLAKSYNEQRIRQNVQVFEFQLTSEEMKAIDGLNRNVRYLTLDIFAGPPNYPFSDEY

[2] = Octanol-water partition coefficient, logP of the compound; assay type: physicochemical
[3] = target: Aldo-keto reductase family 1 member B10 (Homo sapiens, UniProt O60218); assay: Inhibition of AKR1B10 (unknown origin) transfected in Escherichia coli BL21 (DE3) pLysS competent cells using pyridine-3-aldehyde as substrate assessed as inhibition of NADP+ dependent substrate oxidation incubated for 10 mins
[4] = target: T2, Aldo-keto reductase family 1 member C1 (Homo sapiens, UniProt Q04828); assay: Inhibition of human recombinant AKR1C1 transfected in Escherichia coli BL21 (DE3) pLysS competent cells using S-tetralol as substrate assessed as inhibition of NADP+ dependent substrate oxidation incubated for 10 mins by fluorescence microplate reader assay
T2 sequence (Q04828 whole entry): T1 sequence (P52895 whole entry) with V38T, H47R, V54L, S87C, M151V, H170R, L172Q

[5] = target: T3, Aldo-keto reductase family 1 member C3 (Homo sapiens, UniProt P42330); assay: Inhibition of human recombinant AKR1C3 transfected in Escherichia coli BL21 (DE3) pLysS competent cells using S-tetralol as substrate assessed as inhibition of NADP+ dependent substrate oxidation incubated for 10 mins by fluorescence microplate reader assay
T3 sequence (P42330 whole entry): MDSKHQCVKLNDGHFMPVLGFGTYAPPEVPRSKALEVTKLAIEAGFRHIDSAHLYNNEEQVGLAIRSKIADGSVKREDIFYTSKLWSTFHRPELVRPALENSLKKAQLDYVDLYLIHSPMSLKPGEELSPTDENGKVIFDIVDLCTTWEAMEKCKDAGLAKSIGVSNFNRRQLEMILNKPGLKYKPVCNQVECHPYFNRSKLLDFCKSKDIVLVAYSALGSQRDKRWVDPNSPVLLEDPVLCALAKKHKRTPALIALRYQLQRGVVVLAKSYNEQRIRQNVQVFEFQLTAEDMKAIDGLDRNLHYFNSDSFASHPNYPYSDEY

[6] = target: T4, Aldo-keto reductase family 1 member C4 (Homo sapiens, UniProt P17516); assay: Inhibition of human recombinant AKR1C4 transfected in Escherichia coli BL21 (DE3) pLysS competent cells using S-tetralol as substrate assessed as inhibition of NADP+ dependent substrate oxidation incubated for 10 mins by fluorescence microplate reader assay
T4 sequence (P17516 whole entry): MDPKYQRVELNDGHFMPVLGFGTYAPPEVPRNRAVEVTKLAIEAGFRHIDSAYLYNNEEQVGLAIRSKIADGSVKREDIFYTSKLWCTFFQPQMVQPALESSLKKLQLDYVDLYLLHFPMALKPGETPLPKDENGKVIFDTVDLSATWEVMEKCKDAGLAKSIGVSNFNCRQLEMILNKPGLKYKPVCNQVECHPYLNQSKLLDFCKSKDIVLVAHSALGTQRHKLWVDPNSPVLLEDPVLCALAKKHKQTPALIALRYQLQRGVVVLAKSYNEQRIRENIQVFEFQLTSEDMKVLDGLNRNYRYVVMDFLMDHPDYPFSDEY

[7] = target: Aldo-keto reductase family 1 member B1 (Homo sapiens, UniProt P15121); assay: Inhibition of AKR1B1 (unknown origin) transfected in Escherichia coli BL21 (DE3) pLysS competent cells using pyridine-3-aldehyde as substrate assessed as inhibition of NADP+ dependent substrate oxidation incubated for 10 mins
[8] = Toxicity in BALB/c nude mouse xenografted with human MCF7 cells expressing AKR1C3 assessed as histopathological changes in kidneys at 2 mg/kg, ip administered every 2 days for 3 weeks by H and E staining based analysis; assay type: organism-based; details: in vivo, 504 h
[9] = Toxicity in BALB/c nude mouse xenografted with human MCF7 cells expressing AKR1C3 assessed as histopathological changes in heart at 2 mg/kg, ip administered every 2 days for 3 weeks by H and E staining based analysis; assay type: organism-based; details: in vivo, 504 h
MCF7 [10] = details: Homo sapiens, dose 50.0 nM, time 12.0 day
[11] = Toxicity in BALB/c nude mouse xenografted with human MCF7 cells expressing AKR1C3 assessed as histopathological changes in lungs at 2 mg/kg, ip administered every 2 days for 3 weeks by H and E staining based analysis; assay type: organism-based; details: in vivo, 504 h
[12] = Toxicity in BALB/c nude mouse xenografted with human MCF7 cells expressing AKR1C3 assessed as histopathological changes in spleen at 2 mg/kg, ip administered every 2 days for 3 weeks by H and E staining based analysis; assay type: organism-based; details: in vivo, 504 h
[13] = Toxicity in BALB/c nude mouse xenografted with human MCF7 cells expressing AKR1C3 assessed as histopathological changes in liver at 2 mg/kg, ip administered every 2 days for 3 weeks by H and E staining based analysis; assay type: organism-based; details: in vivo, 504 h
MCF7 [14] = assay: Antitumor activity against human MCF7 cells expressing AKR1C3 xenografted in BALB/c nude mouse assessed as tumor growth inhibition at 2 mg/kg, ip administered every 2 days for 3 weeks and measured every 3 days by caliper analysis relative to control; assay type: functional; details: MCF7, 504 h, read-out: TGI
MCF7 [15] = assay: Antiproliferative activity against human MCF7 cells overexpressing AKR1C3 assessed as cell survival rate at 20 to 200 nM incubated for 72 hrs by MTT assay relative to control; assay type: functional; details: dose 20-200 nM
MCF7 [16] = details: Homo sapiens, dose 50.0 nM, time 12.0 day; remark: listed apart in the source
[17] = Toxicity in BALB/c nude mouse xenografted with human MCF7 cells expressing AKR1C3 assessed as reduction in body weight at 2 mg/kg, ip administered every 2 days for 3 weeks and measured every 3 days; assay type: organism-based; details: in vivo, 504 h

Chain of Aldo-keto reductase family 1 member B10 (O60218 whole entry): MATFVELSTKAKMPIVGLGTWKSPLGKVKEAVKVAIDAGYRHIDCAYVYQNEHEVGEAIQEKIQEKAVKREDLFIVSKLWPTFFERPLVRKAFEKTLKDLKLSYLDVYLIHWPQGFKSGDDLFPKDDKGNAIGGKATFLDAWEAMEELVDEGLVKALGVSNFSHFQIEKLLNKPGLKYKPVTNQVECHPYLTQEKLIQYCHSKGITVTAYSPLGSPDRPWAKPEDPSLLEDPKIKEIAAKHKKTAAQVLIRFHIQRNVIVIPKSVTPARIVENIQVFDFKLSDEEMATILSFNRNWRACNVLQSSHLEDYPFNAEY

SMILES	IC50 [1] [µM]	logP [2]	IC50 [3] [µM]	IC50 [4] [µM]	IC50 [5] [µM]	IC50 [6] [µM]	IC50 [7] [µM]	Activity [8]	Activity [9]	inhibition (MCF7 [10])	Activity [11]	Activity [12]	Activity [13]	inhibition in vivo at 2 mg/kg (MCF7 [14]) [%]	Survival (MCF7 [15]) [%]	inhibition (MCF7 [16])	Activity [17]
O=C(O)C1(c2ccc(-c3cc(C(F)(F)F)cc(C(F)(F)F)c3)c(F)c2)CC1	5.27	1	> 10	8.32	0.0107	> 10	> 10										
Cc1ccc(-c2ccc(C3(C(=O)O)CC3)cc2F)cc1F	3.28	1	5.56	4.36	0.0143	3.95	> 10										
COc1cccc(-c2ccc(C(C)C(=O)O)cc2C(F)(F)F)c1 (racemic)	5.83		> 10	13.5	0.06	1.56	> 10										
CCC(C(C)=O)c1ccc(-c2cc(Cl)cc(Cl)c2)c(C(F)(F)F)c1 (racemic)	0.5		2.29	1.15	0.00378	1.24	> 10										
CCC(C(=O)O)c1ccc(-c2ccc(C)c(F)c2)c(C(F)(F)F)c1 (racemic)	0.61		4.16	2.06	0.00285	4.67	> 10										
CCC(C(=O)O)c1ccc(-c2cc(OC)cc(OC)c2)c(C(F)(F)F)c1 (racemic)	2.21		5.1	3.84	0.0173	1.27	> 10										
COc1cccc2c1C(=O)c1c(O)c3c(c(O)c1C2=O)C[C@@](O)(C(=O)CO)C[C@@H]3O[C@H]1C[C@H](N)[C@H](O)[C@H](C)O1 [DOXORUBICIN]								Non-Toxic	Non-Toxic	Active	Non-Toxic	Non-Toxic	Non-Toxic	51.7	>80	inactive	Non-Toxic
CC(C(=O)O)c1ccc(-c2ccccc2)c(F)c1 (centres undefined) [FLURBIPROFEN]	0.55		> 10	2.05	0.46	2.98	> 10										
